Laboratory results as given in patent US12606541B2, “PPARg modulators and methods of use” (Eisai R&D Management Co., Ltd., priority 2020, dated 2026).
Where two headings read alike, the source gives them in different places.

How the values were obtained:
UM-UC-9 engineered cells = assay: Cell proliferation / short-term viability assay, CellTiter-Glo 144 h; type: cell-based, human; settings: read-out: CTGlo 144 h UMUC9.5, G150
Method in brief: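 Viability read by CellTiter-Glo 2.0 luminescence at day 7 versus DMSO-vehicle wells and a T0 plate measured on day 0. Cells: UM-UC-9 engineered assay-ready stocks, 500 cells/well in high-glucose DMEM with 10% FBS, 37° C, 5% CO2.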

His6-TEV-PPARγ-(234-505) = biological target: T1, His6-TEV-PPARγ-(234-505) (Homo sapiens, UniProt P37231); assay: TR-FRET Assay to Measure Co-R Peptide Recruitment to PPARγ; type: biochemical; settings: Co-R peptide (SMRT-ID2) recruitment; top final concentration 20 μM; read-out: TR-FRET i-Ag; AC50
T1 construct: The His6-TEV-PPARγ-(234-505) protein for assay was expressed and purified; TEV cleavage site (N); made in house
T1 sequence (P37231 234-505): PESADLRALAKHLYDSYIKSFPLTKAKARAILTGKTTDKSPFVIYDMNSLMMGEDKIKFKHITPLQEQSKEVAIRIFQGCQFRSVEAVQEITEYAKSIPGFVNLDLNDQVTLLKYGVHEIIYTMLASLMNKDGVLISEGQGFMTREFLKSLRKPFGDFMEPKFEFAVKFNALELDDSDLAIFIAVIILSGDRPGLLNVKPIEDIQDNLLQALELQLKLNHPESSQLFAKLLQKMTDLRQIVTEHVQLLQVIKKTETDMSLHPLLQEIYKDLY
Method in brief: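 Corepressor recruitment is measured by adding terbium-labeled anti-His antibody and FITC SMRT-ID2 peptide, at 5 and 200 nM final, after a 20-minute room-temperature protein–compound incubation. After one further hour, signal is converted to percent response between DMSO and 500 nM T0070907 wells.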

Compound `COc1cc(-c2cc(C(=O)N3CC[C@H](C(=O)NC4CCC(C)(C)N(C)C4)CC34CC4)n[nH]2)c(F)cn1` (single isomer, unassigned) [Example 424-A] has an IC50 (UM-UC-9 engineered cells) of 2980 nM and an AC50 (His6-TEV-PPARγ-(234-505)) of 1030 nM.
With `COc1cc(-c2cc(C(=O)N3CC[C@H](C(=O)NC45CC(CO)(C4)OC5C)CC34CC4)n[nH]2)c(F)cn1` (single isomer, unassigned) [Example 518-B] the IC50 (UM-UC-9 engineered cells) was over 10000 nM and the AC50 (His6-TEV-PPARγ-(234-505)) was 996 nM.
Compound `COc1cc(-c2cc(C(=O)N3CC[C@H](C(=O)NCc4ccc5c(c4)B(O)OC5(C)C)CC34CC4)[nH]n2)c(F)cn1` [Example 522, (S)-4-(3-(5-fluoro-2-methoxypyridin-4-yl)-1H-pyrazole-5-carbonyl)-N-((1-hydroxy-3,3-dimethyl-1,3-dihydrobenzo[c][1,2]oxaborol-6-yl)methyl)-4-azaspiro[2.5]octane-7-carboxamide] has an IC50 (UM-UC-9 engineered cells; Homo sapiens, UM-UC-9, 144 h) of 14.3 nM and an AC50 (His6-TEV-PPARγ-(234-505)) of 1.4 nM.
Work on `COc1cc(-c2cc(C(=O)N3CCC(C(=O)NCC4CCn5c(C)nnc5C4)CC34CC4)n[nH]2)c(F)cn1` (single isomer, unassigned) [Example 346-B] yielded an IC50 (UM-UC-9 engineered cells) of 2410 nM and an AC50 (His6-TEV-PPARγ-(234-505)) of 1120 nM.
In the case of `COc1cc(-c2cc(C(=O)N3CCC(C(=O)NCc4ccc(C)cn4)CC3)n[nH]2)c(Cl)cn1` [Example 176, 1-(5-(5-chloro-2-methoxypyridin-4-yl)-1H-pyrazole-3-carbonyl)-N-((5-methylpyridin-2-yl)methyl)piperidine-4-carboxamide], the IC50 (UM-UC-9 engineered cells; Homo sapiens, UM-UC-9, 144 h) is reported as 1840 nM and the AC50 (His6-TEV-PPARγ-(234-505)) is reported as 376 nM.
Compound `COc1cc(-c2cc(C(=O)N3[C@@H]4CC[C@H]3C[C@H](C(=O)NCc3ccc5[nH]c(C)c(C)c5c3)C4)n[nH]2)c(F)cn1` [Example 285, (1R,3R,5S)—N-[(2,3-dimethyl-1H-indol-5-yl)methyl]-8-[5-(5-fluoro-2-methoxypyridin-4-yl)-1H-pyrazole-3-carbonyl]-8-azabicyclo[3.2.1]octane-3-carboxamide] has an IC50 (UM-UC-9 engineered cells; Homo sapiens, UM-UC-9, 144 h) of 16.3 nM and an AC50 (His6-TEV-PPARγ-(234-505)) of 7.9 nM.
Compound `COc1cc(-c2cc(C(=O)N3CC[C@H](C(=O)NC4CCC5CCCN5C4)CC34CC4)n[nH]2)c(F)cn1` (single isomer, unassigned) [Example 376-C] has an IC50 (UM-UC-9 engineered cells) of 23.6 nM and an AC50 (His6-TEV-PPARγ-(234-505)) of 19.2 nM.
Compound `COc1cc(-c2cc(C(=O)N3CCC(C(=O)NCC4CC(F)(F)CO4)CC3)n[nH]2)c(Cl)cn1` (racemic) [Example 220, 1-(5-(5-chloro-2-methoxypyridin-4-yl)-1H-pyrazole-3-carbonyl)-N-((4,4-difluorotetrahydrofuran-2-yl)methyl)piperidine-4-carboxamide] has an IC50 (UM-UC-9 engineered cells; Homo sapiens, UM-UC-9, 144 h) of 2130 nM and an AC50 (His6-TEV-PPARγ-(234-505)) of 286 nM.
With “(1R,3s,5S)-8-(5-(5-fluoro-2-methoxypyridin-4-yl)-1H-pyrazole-3-carbonyl)-N—((R)-1-(3-(trifluoromethyl)-1,2,4-oxadiazol-5-yl)ethyl)-8-azabicyclo[3.2.1]octane-3-carboxamide and (1R,3s,5S)-8-(5-(5-fluoro-2-methoxypyridin-4-yl)-1H-pyrazole-3-carbonyl)-N—(S)-1-(3-(trifluoromethyl)-1,2,4-oxadiazol-5-yl)ethyl)-8-azabicyclo[3.2.1]octane-3-carboxamide [Example 290]” the IC50 (UM-UC-9 engineered cells) was 833 nM and the AC50 (His6-TEV-PPARγ-(234-505)) was 400 nM.
For `COc1cc(-c2cc(C(=O)N3CC[C@H](C(=O)NCc4nccnc4C)CC34CC4)n[nH]2)c(F)cn1` [Example 397, (S)-4-(5-(5-fluoro-2-methoxypyridin-4-yl)-1H-pyrazole-3-carbonyl)-N-((3-methylpyrazin-2-yl)methyl)-4-azaspiro[2.5]octane-7-carboxamide], the IC50 (UM-UC-9 engineered cells; Homo sapiens, UM-UC-9, 144 h) was 59.9 nM and the AC50 (His6-TEV-PPARγ-(234-505)) was 23.4 nM.
`N#Cc1cc(-c2cc(C(=O)N3CCC(C(=O)NC4CCC(O)(C(F)(F)F)CC4)CC34CC4)n[nH]2)ncn1` (single isomer, unassigned) [Example 528-A] gave an IC50 (UM-UC-9 engineered cells) of over 10000 nM and an AC50 (His6-TEV-PPARγ-(234-505)) of 2090 nM.
Compound `COc1cc(-c2cc(C(=O)N3CCC(C(=O)NC4CCCc5nc(C)ncc54)CC3)n[nH]2)c(Cl)cn1` (racemic) [Example 224, 1-(5-(5-chloro-2-methoxypyridin-4-yl)-1H-pyrazole-3-carbonyl)-N-(2-methyl-5,6,7,8-tetrahydroquinazolin-5-yl)piperidine-4-carboxamide] has an IC50 (UM-UC-9 engineered cells; Homo sapiens, UM-UC-9, 144 h) of 5180 nM and an AC50 (His6-TEV-PPARγ-(234-505)) of 554 nM.
For `COc1cc(-c2cc(C(=O)N3CCC(C(=O)NCC4CCc5nccn5C4)CC34CC4)n[nH]2)c(F)cn1` (mixture of isomers) [Example 356, (S)-4-(5-(5-fluoro-2-methoxypyridin-4-yl)-1H-pyrazole-3-carbonyl)-N—(((S)-5,6,7,8-tetrahydroimidazo[1,2-a]pyridin-6-yl)methyl)-4-azaspiro[2.5]octane-7-carboxamide and (S)-4-(5-(5-fluoro-2-methoxypyridin-4-yl)-1H-pyrazole-3-carbonyl)-N—(((R)-5,6,7,8-tetrahydroimidazo[1,2-a]pyridin-6-yl)methyl)-4-azaspiro[2.5]octane-7-carboxamide], the IC50 (UM-UC-9 engineered cells) was 4790 nM and the AC50 (His6-TEV-PPARγ-(234-505)) was 113 nM.
Compound `COc1cc(-c2cc(C(=O)N3CC[C@H](C(=O)NCc4ncc(C#N)cc4Cl)CC34CC4)n[nH]2)c(F)cn1` [Example 391, (S)—N-((3-chloro-5-cyanopyridin-2-yl)methyl)-4-(5-(5-fluoro-2-methoxypyridin-4-yl)-1H-pyrazole-3-carbonyl)-4-azaspiro[2.5]octane-7-carboxamide] has an IC50 (UM-UC-9 engineered cells; Homo sapiens, UM-UC-9, 144 h) of 81.3 nM and an AC50 (His6-TEV-PPARγ-(234-505)) of 19.5 nM.
Compound `Cc1cc(-c2cc(C(=O)N3[C@@H]4CC[C@H]3C[C@H](C(=O)NCc3cccc(Cl)c3)C4)n[nH]2)c(F)cn1` [Example 268, (1R,3S,5S)—N-[(3-chlorophenyl)methyl]-8-[5-(5-fluoro-2-methylpyridin-4-yl)-1H-pyrazole-3-carbonyl]-8-azabicyclo[3.2.1]octane-3-carboxamide] has an IC50 (UM-UC-9 engineered cells; Homo sapiens, UM-UC-9, 144 h) of 36.5 nM and an AC50 (His6-TEV-PPARγ-(234-505)) of 7 nM.
For `COc1cc(-c2cc(C(=O)N3CCC(C(=O)NC(C)COc4ccc(Cl)cc4)CC3)n[nH]2)c(Cl)cn1` (stereo not drawn) [Example 142, 1-(5-(5-chloro-2-methoxypyridin-4-yl)-1H-pyrazole-3-carbonyl)-N-(1-(4-chlorophenoxy)propan-2-yl)piperidine-4-carboxamide], the IC50 (UM-UC-9 engineered cells; Homo sapiens, UM-UC-9, 144 h) was 3140 nM and the AC50 (His6-TEV-PPARγ-(234-505)) was 904 nM.
`COc1cc(-c2cc(C(=O)N3CC[C@H](C(=O)N[C@H]4CC[C@@](OCCN(C)C)(C(F)(F)F)CC4)CC34CC4)n[nH]2)c(F)cn1` [Example 329-A, (S)—N-((1r,4S)-4-(2-(dimethylamino)ethoxy)-4-(trifluoromethyl)cyclohexyl)-4-(5-(5-fluoro-2-methoxypyridin-4-yl)-1H-pyrazole-3-carbonyl)-4-azaspiro[2.5]octane-7-carboxamide] was tested, and the IC50 (UM-UC-9 engineered cells; Homo sapiens, UM-UC-9, 144 h) was 24.3 nM and the AC50 (His6-TEV-PPARγ-(234-505)) was 7.5 nM.
For `COc1cc(-c2cc(C(=O)N3CCC(C(=O)NC4CCN(c5cccnc5)C4)CC34CC4)n[nH]2)c(F)cn1` (mixture of isomers) [Example 390, (S)-4-(5-(5-fluoro-2-methoxypyridin-4-yl)-1H-pyrazole-3-carbonyl)-N—((R)-1-(pyridin-3-yl)pyrrolidin-3-yl)-4-azaspiro[2.5]octane-7-carboxamide and (S)-4-(5-(5-fluoro-2-methoxypyridin-4-yl)-1H-pyrazole-3-carbonyl)-N—((S)-1-(pyridin-3-yl)pyrrolidin-3-yl)-4-azaspiro[2.5]octane-7-carboxamide], the IC50 (UM-UC-9 engineered cells) was 7.1 nM and the AC50 (His6-TEV-PPARγ-(234-505)) was 4.2 nM.
In the case of `COc1cc(-c2cc(C(=O)N3CC[C@H](C(=O)NCc4ncc(OC5COC5)cc4Cl)CC34CC4)n[nH]2)c(F)cn1` [Example 446, (S)—N-((3-chloro-5-(oxetan-3-yloxy)pyridin-2-yl)methyl)-4-(5-(5-fluoro-2-methoxypyridin-4-yl)-1H-pyrazole-3-carbonyl)-4-azaspiro[2.5]octane-7-carboxamide], the IC50 (UM-UC-9 engineered cells; Homo sapiens, UM-UC-9, 144 h) is reported as 27.4 nM and the AC50 (His6-TEV-PPARγ-(234-505)) is reported as 1.3 nM.
`COc1cc(-c2cc(C(=O)N3CC[C@H](C(=O)NCc4nccn4C(F)(F)F)CC34CC4)[nH]n2)c(F)cn1` [Example 519, (S)-4-(3-(5-fluoro-2-methoxypyridin-4-yl)-1H-pyrazole-5-carbonyl)-N-((1-(trifluoromethyl)-H-imidazol-2-yl)methy)-4-azaspiro[2.5]octane-7-carboxamide] showed an IC50 (UM-UC-9 engineered cells; Homo sapiens, UM-UC-9, 144 h) of 19.1 nM and an AC50 (His6-TEV-PPARγ-(234-505)) of 4.3 nM.
`COc1cc(-c2cc(C(=O)N3CCC(C(=O)NCc4ccc5[nH]nc(C)c5c4)CC3)n[nH]2)c(F)cn1` [Example 204, 1-[5-(5-fluoro-2-methoxypyridin-4-yl)-1H-pyrazole-3-carbonyl]-N-[(3-methyl-1H-indazol-5-yl)methyl]piperidine-4-carboxamide] showed an IC50 (UM-UC-9 engineered cells; Homo sapiens, UM-UC-9, 144 h) of 83.3 nM and an AC50 (His6-TEV-PPARγ-(234-505)) of 20.2 nM.
With `COc1cc(-c2cc(C(=O)N3CCC(C(=O)NCc4nccc5[nH]ccc45)CC3)n[nH]2)c(Cl)cn1` [Example 254, N-((1H-pyrrolo[3,2-c]pyridin-4-yl)methyl)-1-(5-(5-chloro-2-methoxypyridin-4-yl)-1H-pyrazole-3-carbonyl)piperidine-4-carboxamide] the IC50 (UM-UC-9 engineered cells; Homo sapiens, UM-UC-9, 144 h) was over 2000 nM and the AC50 (His6-TEV-PPARγ-(234-505)) was 58.8 nM.
For `COc1cc(-c2cc(C(=O)N3CCC(C(=O)NC4CC(N5CCC(F)(F)C5)C4(C)C)CC34CC4)n[nH]2)c(F)cn1` (single isomer, unassigned) [Example 355-B], the IC50 (UM-UC-9 engineered cells) was 3.3 nM and the AC50 (His6-TEV-PPARγ-(234-505)) was 9.4 nM.
`COc1cc(-c2cc(C(=O)N3CC[C@H](C(=O)NC4CCC(CO)(C(F)(F)F)CC4)CC34CC4)n[nH]2)c(F)cn1` (single isomer, unassigned) [Example 408-A] was tested, and the IC50 (UM-UC-9 engineered cells) was 3.9 nM and the AC50 (His6-TEV-PPARγ-(234-505)) was 4.5 nM.
